Target: T1, New Delhi metallo-β-lactamase-1 (NDM-1) (Escherichia coli, UniProt E5KIY2)
T1 construct: gene blaNDM-1; His-tagged protein (pET28a), ndm-1 from E. coli ZC-YN3
Assay: nitrocefin hydrolysis inhibition assay with purified enzyme
Type: biochemical

T1 sequence (E5KIY2 29-270 limits assumed): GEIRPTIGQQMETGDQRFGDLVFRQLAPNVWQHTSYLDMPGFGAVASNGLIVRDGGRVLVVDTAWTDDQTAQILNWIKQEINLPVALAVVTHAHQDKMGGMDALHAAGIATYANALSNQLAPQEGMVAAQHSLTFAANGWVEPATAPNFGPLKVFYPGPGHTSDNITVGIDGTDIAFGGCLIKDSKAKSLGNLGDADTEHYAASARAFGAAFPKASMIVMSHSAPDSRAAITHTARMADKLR

Question: Which IC50 does the source give for `O=C(/C=C/c1ccc(O[C@@H]2O[C@H](CO)[C@@H](O)[C@H](O)[C@H]2O)cc1)c1ccc(O)cc1O` [isoliquiritin] here?
Answer: 92.3 µM
